From patent publication US20150105252A1, “SUBSTITUTED PYRAZOLES AS HERBICIDES” (E I DU PONT DE NEMOURS AND COMPANY, priority 2013, published 2015)

Legend:
barnyardgrass [1] = assay: Test A preemergence; assay type: in vivo, Echinochloa crus-galli; settings: Preemergence, 0 to 100 scale, 0 no effect, 100 complete control
Source text: (§1) Seeds of plant species selected from barnyardgrass (Echinochloa crus-galli), kochia (Kochia scoparia), common ragweed (Ambrosia elation), Italian ryegrass (Lolium multiflorum), crabgrass, large (large crabgrass, Digitaria sanguinalis), foxtail, giant (giant foxtail, Setaria faberii), morningglory (Ipomoea spp.), pigweed (redroot pigweed, Amaranthus retroflexus), velvetleaf (Abutilon theophrasti), wheat (Triticum aestivum), and corn (Zea mays) were planted into a blend of loam soil and sand and treated preemergence with a directed soil spray using test chemicals formulated in a non-phytotoxic solvent mixture which included a surfactant.
(§2) At the same time, plants selected from these crop and weed species and also blackgrass (Alopecurus myosuroides), and galium (catchweed bedstraw, Galium aparine) were planted in pots containing the same blend of loam soil and sand and treated with postemergence applications of test chemicals formulated in the same manner. Plants ranged in height from 2 to 10 cm and were in the one- to two-leaf stage for the postemergence treatment. Treated plants and untreated controls were maintained in a greenhouse for approximately 10 days, after which time all treated plants were compared to untreated controls and visually evaluated for injury. Plant response ratings, summarized in Table A, are based on a 0 to 100 scale where 0 is no effect and 100 is complete control. A dash (-) response means no test result.

crabgrass, large [2] = assay: Test A preemergence; assay type: in vivo, Digitaria sanguinalis; settings: Preemergence, 0 to 100 scale, 0 no effect, 100 complete control
Source text: as §1, §2

foxtail, giant [3] = assay: Test A preemergence; assay type: in vivo, Setaria faberii; settings: Preemergence, 1000 g ai/ha; 0 to 100 scale, 0 no effect, 100 complete control
Source text: as §1, §2

morningglory [4] = assay: Test A preemergence; assay type: in vivo, Ipomoea spp.; settings: Preemergence, 0 to 100 scale, 0 no effect, 100 complete control
Source text: as §1, §2

pigweed [5] = assay: Test A preemergence; assay type: in vivo, Amaranthus retroflexus; settings: Preemergence, 1000 g ai/ha; 0 to 100 scale, 0 no effect, 100 complete control
Source text: as §1, §2

velvetleaf [6] = assay: Test A preemergence; assay type: in vivo, Abutilon theophrasti; settings: Preemergence, 0 to 100 scale, 0 no effect, 100 complete control
Source text: as §1, §2

wheat [7] = assay: Test A preemergence; assay type: in vivo, Triticum aestivum
Source text: as §1, §2

corn [8] = assay: Test A preemergence; assay type: in vivo, Zea mays; settings: Preemergence, 1000 g ai/ha; 0 to 100 scale, 0 no effect, 100 complete control
Source text: as §1, §2

barnyardgrass [9] = assay: Test A postemergence; assay type: in vivo, Echinochloa crus-galli; settings: Postemergence, 1000 g ai/ha; visual rating after approx. 10 days, 0 to 100 scale (0 no effect, 100 complete control)
Source text: as §1, §2

crabgrass, large [10] = assay: Test A postemergence; assay type: in vivo, Digitaria sanguinalis; settings: Postemergence, 1000 g ai/ha; visual rating after approx. 10 days, 0 to 100 scale (0 no effect, 100 complete control)
Source text: as §1, §2

foxtail, giant [11] = assay: Test A postemergence; assay type: in vivo, Setaria faberii; settings: Postemergence, 1000 g ai/ha; visual rating after approx. 10 days, 0 to 100 scale (0 no effect, 100 complete control)
Source text: as §1, §2

morningglory [12] = assay: Test A postemergence; assay type: in vivo, Ipomoea spp.; settings: Postemergence
Source text: as §1, §2

pigweed [13] = assay: Test A postemergence; assay type: in vivo, Amaranthus retroflexus; settings: Postemergence
Source text: as §1, §2

velvetleaf [14] = assay: Test A postemergence; assay type: in vivo, Abutilon theophrasti; settings: Postemergence
Source text: as §1, §2

wheat [15] = assay: Test A postemergence; assay type: in vivo, Triticum aestivum; settings: Postemergence
Source text: as §1, §2

corn [16] = assay: Test A postemergence; assay type: in vivo, Zea mays; settings: Postemergence, 1000 g ai/ha; visual rating after approx. 10 days, 0 to 100 scale (0 no effect, 100 complete control)
Source text: as §1, §2

[17] = Preemergence, 1000 g ai/ha, 0 to 100 scale, 0 no effect, 100 complete control
[18] = 1000 g ai/ha, visual rating after approx. 10 days, 0 to 100 scale (0 no effect, 100 complete control)
[19] = 125 g ai/ha, 0 to 100 scale, 0 no effect, 100 complete control

| SMILES | Barnyardgrass plant response rating (barnyardgrass [1]; 1000 g ai/ha) | Crabgrass, Large plant response rating (crabgrass, large [2]; 1000 g ai/ha) | Foxtail, Giant plant response rating (foxtail, giant [3]) | Morningglory plant response rating (morningglory [4]; 1000 g ai/ha) | Pigweed plant response rating (pigweed [5]) | Velvetleaf plant response rating (velvetleaf [6]; 1000 g ai/ha) | Wheat plant response rating (wheat [7]; [17]) | Corn plant response rating (corn [8]) | Barnyardgrass plant response rating (barnyardgrass [9]) | Crabgrass, Large plant response rating (crabgrass, large [10]) | Foxtail, Giant plant response rating (foxtail, giant [11]) | Morningglory plant response rating (morningglory [12]; [18]) | Pigweed plant response rating (pigweed [13]; [18]) | Velvetleaf plant response rating (velvetleaf [14]; [18]) | Wheat plant response rating (wheat [15]; [18]) | Corn plant response rating (corn [16]) | also measured |
| --- | --- | --- | --- | --- | --- | --- | --- | --- | --- | --- | --- | --- | --- | --- | --- | --- | --- |
| O=C(NCC(F)(F)F)c1cc(C2CC2)n(Cc2cccc(OC(F)(F)F)c2)n1 [Compound 36] | 0 | 20 | 20 | 0 | 30 | 0 | 0 | 0 | 20 | 30 | 30 | 90 | 90 | 60 | 0 | 20 |  |
| CCCNC(=O)c1cc(C2CC2)n(Cc2cccc(OC(F)(F)F)c2)n1 [Compound 38] | 0 | 20 | 0 | 0 | 0 | 0 | 0 | 0 | 10 | 10 | 10 | 100 | 40 | 50 | 0 | 30 |  |
| CCc1cc(C(=O)NC2CC2)nn1Cc1cccc(C(F)(F)F)c1 [Compound 15] | 90 | 100 | 100 | 90 | 90 | 100 | 20 | 20 | 80 | 90 | 90 | 100 | 80 | 100 | 50 | 70 |  |
| CCc1cc(C(=O)NC2CC2)nn1Cc1cccc(OC(F)(F)F)c1 [Compound 26] | 80 | 100 | 100 | 90 | 100 | 100 | 40 | 40 | 70 | 90 | 100 | 100 | 100 | 100 | 50 | 70 |  |
| O=C(NC1CC1)c1cc(CCCl)n(Cc2ccnc(C(F)(F)F)c2)n1 [Compound 194] |  |  |  |  |  |  |  |  |  |  |  |  |  |  |  |  | Morningglory plant response rating (morningglory [12]; [19]): 50; Pigweed plant response rating (pigweed [13]; [19]): 50; Velvetleaf plant response rating (velvetleaf [14]; [19]): 60; Wheat plant response rating (wheat [15]; [19]): 0 |
| C=CCNC(=O)c1cc(CC)n(Cc2cccc(OC(F)(F)F)c2)n1 [Compound 58] | 10 | 70 | 20 | 20 | 70 | 0 | 0 | 0 | 20 | 30 | 20 | 50 | 60 | 50 | 0 | 20 | Wheat plant response rating (wheat [7]; preemergence, 500 g ai/ha, visual injury after approx. 10 days, 0 to 100 scale (0 no effect, 100 complete control)): 0 |
| CCc1cc(C(=O)NC(C)(C)C)nn1Cc1cccc(C(F)(F)F)c1 [Compound 50] | 10 | 10 | 30 | 0 | 0 | 0 | 0 | 0 | 10 | 10 | 30 | 10 | 30 | 10 | 0 | 20 |  |
| Cc1cc(C(=O)NC2CC2)nn1Cc1cccc(C(F)(F)F)c1 [Compound 2] |  |  |  |  |  |  |  |  | 50 | 50 |  | 80 |  | 70 |  |  | Barnyardgrass plant response rating (barnyardgrass [1]; 2000 g ai/ha): 90; Crabgrass, Large plant response rating (crabgrass, large [2]; 2000 g ai/ha): 100; Morningglory plant response rating (morningglory [4]; 2000 g ai/ha): 100; Velvetleaf plant response rating (velvetleaf [6]; 2000 g ai/ha): 100 |
| Cc1cc(C(=O)NC(C)(C)C)nn1Cc1cccc(C(F)(F)F)c1 [Compound 1] |  |  |  |  |  |  |  |  | 30 | 30 |  | 20 |  | 30 |  |  | Barnyardgrass plant response rating (barnyardgrass [1]; 2000 g ai/ha): 10; Crabgrass, Large plant response rating (crabgrass, large [2]; 2000 g ai/ha): 10; Morningglory plant response rating (morningglory [4]; 2000 g ai/ha): 0; Velvetleaf plant response rating (velvetleaf [6]; 2000 g ai/ha): 0 |
